Entries after “also recorded” stand apart in the source; their conditions may differ. Where no end group is shown, it is not given here.

For one data set, the system named is PALB2-IKZF3d. The experiment in a line: IMiD-induced degradation of PALB2-IKZF3d (Western blot). The format is cell-based. The conditions noted are these: for degradation of PALB2 in IKZF3d knock-in cells: homozygous IKZF3d knock-in HEK293 cells, 24 h treatment. On the procedure: 5.1 Degradation of PALB2 and UPP rescue assays
To show PALB2 deegradation, cells were treated with pomalidomide at the indicated concentrations for 24 h. The cells were subsequently lysed and prepared for gel electrophoresis and western blotting.
To show UPP rescue, MG132 and MLN4924 were used to inhibit the ubiquitination-proteasome degradation pathway. The cells were first treated with 1 μM MG132 or 1 μM MLN4924. After 6 h, pomalidomide was added to a final concentration of 10 μM. After 18 h, the cells were collected and lysed.
To show PALB2 recovery, the cells were first treated with 10 μM pomalidomide or 10 μM iberdomide for 24 h. After that, the culture medium was removed, the cells were washed three times with fresh culture medium and then cultured with culture medium without IMiDs.
The cells were then collected an d l yse d . […]
Figure S7. A). Degradation of endogenous PALB2.
B). PALB2 de gra dation rescue expe ri ment. The cells in the degradation rescue group w ere first t reated with 1 μ M MG132 and 1 μ M M LN49 24 for 6 hou rs and then t reated with 10 μ M pomalidomide for 1 8 hours. Cell samples were collected for WB analysis. The asterisk represents a nonspecific band of PALB 2 with t his antibody. […]
In general terms: A western blot detects proteins with antibodies after separation by electrophoresis.

Data set [1] relates to homologous recombination repair (DR-GFP reporter). The experiment in a line: DR-GFP reporter assay of homologous recombination. The format is cell-based. On the procedure: DR-GFP plasmid[53] (a gift from Maria Jasin, Addgene plasmid #26475; RRID/Addgene_26475) was transfected into HEK293 cells with TurboFect (Thermo Scientific) at 70% confluency and selected with hygromycin (0.1 g/L, Invivogen) after 48 h. Transfected cells were moved to a 150 mm cell culture dish and cultured in DMEM medium with hygromycin (0.1 g/L). After obtaining cells carrying the DR-GFP reporter, the cells were treated with Pom for 24 h. Cells were then transfected with a modified pCBASceI[53] (a gift from Maria Jasin, Addgene plasmid #26477; RRID/Addgene_26477, I-SceI was expressed with P2A-mCherry to select for positively transfected cells) to introduce DSB at the I-SceI site in inserted DR-GFP plasmid. Four days after transfection, cells were resuspended in PBS and analyzed by flow cytometry.
6 Homologous recombination assay […]
(§1) After obtaining cells carrying the DR-GFP reporter, cells were maintained in medium with 10 µM pomalidomide for 24 hours. […] Four days after transfection, cells were resuspended in PBS and analyzed by flow cytometry using a BD LSR Fortessa. […]
(§2) primary antibody incubation, coverslips were washed 3 times with PBS. […] Fluorescence images were taken by confocal microscopy (LEICA POINT SCANNING CONFOCAL SP8). RAD51 f o ci numbers in each cell we re counted with Fiji ImageJ.
(Reporter assays use an easily measured gene product as a stand-in for the process of interest.)

The next data set concerns Rad51 foci. The experiment in a line: Rad51 foci assay. The format is cell-based. The conditions noted are these: Pom 10 μM 24 h, then CPT 10 nM 12 h. On the procedure:
50,000 cells (WT HEK293 or HEK293-PALB2^IKZF 3d/IKZF 3d) were seeded on coverslips and cultured with Pom (10 μM). After 24 h, CPT was added (10 nM). […] After removing the BSA-containing PBS, coverslips were incubated with primary antibody (Alexa Fluor 488 Anti-Rad51 antibody [EPR4030(3)] (Abcam, ab309674, RRID/AB_3675862), 1:500 in PBS) for 2 h and washed with PBS (3 times). Then, coverslips were mounted with antifade mountant with DAPI (Invitrogen) and fluorescence images were recorded by confocal microscopy (Leica Point Scanning Confocal SP8). Rad51 foci numbers in each cell were counted with Fiji ImageJ.
6 Homologous recombination assay
DR-GFP1 substrate (a gift from Maria Jasin, Addgene plasmid #26475; RRID:Addgene_26475) is flanked by human AAVS1 homology arms. Endogenous AAVS1 promoter drives T2A-hygromycin expression after integration. PX458-AAVS1 (#113194, Addgene) encodes sgRNA for human AAVS1 and expresses Cas9 nuclease. […]
as §1, §2

Data set [2] deals with HEK293 PALB2 IKZF3d/IKZF3d knock-in cells. Briefly: Cell viability assay (WST-1). The format is cell-based. Conditions: 4 days (96 h), Pom 0, 5, 10 and 40 μM, WST-1. A general note: Tetrazolium dyes change colour on reduction, which living cells bring about.
For data set [3], the target named is PALB2 C-terminal WD40 domain. Conditions: previous structural work; read-out: binding affinity to PALB2; cited from earlier work. On the procedure:
Previous structural work on the PALB2 C-terminal WD40 domain identified a small fragment of BRCA2 (residues 21–39) with an approximately 600 nM binding affinity (600 nM) to PALB2 (see Figure 2A for structure).[16] […] Binding of the BRCA2(21–39) peptide using fluorescence polarization (FP) with fluorescein (FAM) indeed gave a value in close alignment with the previous report (Figure 2B).[16] Building from this observation we further characterized the binding of amino acids 1 ...

Data set [4] concerns the target BRCA2 21-39 (Homo sapiens) (UniProt P51587). The conditions noted are these: cited from earlier work.
For a further data set, the system named is SmBiT-PALB2. The experiment in a line: NanoBit protein-protein interaction assay in HEK293 cells. It counts as cell-based. Conditions: BRCA2 peptide fused to LgBiT, HEK293, 24 h after transfection, signal normalized to empty vector. On the procedure:
The NanoBit CMV MCS BiBiT-Ready Vector (Promega) was modified to express PALB2 with a C-Terminal SmBit and the BRCA2 N-terminal peptide with a N-terminal LgBit. 5000 HEK293 cells were seeded in each well of a 96-well plate with a white bottom and grown for 24 h with cell medium (DMEM supplemented with 10% FCS at 37 °C with 5% CO2). The plasmid (100 ng) was transfected with FuGene HD (Promega, E5911) and incubated for 24 h. Then, Nano-Glo Live cell assay substrate (Promega) was added and the luminescence signal was recorded for 1000 ms. Signal was normalized to empty vector.
3 PALB2-BRCA2 interaction assays
0.5 million HEK293 cells were seeded per well in a 6-well plate. After 24 h, 2 μg of plasmid pCMV-FLAG-PALB2-IKZF3d or pCMV-FLAG-GFP-IKZF3d (control group) was transiently transfected with TurboFect (Thermo Scientific, e.g. R0531 or R0533) int o each well . After 36 h , the medium of at least 3 wells was removed. The cells were washed once with cold PBS on ice. […] The samples were analyzed by Western Blot. […]
NanoBiT CMV MCS BiBiT-Ready Vector (Promega) was used to construct a plasmid that can express LgBit fusion and SmBit fusion at the same time in cells. […] 24 hours after transfection, the luminescence signal of each well was obtained by adding Nano-Glo Live Cell Assay System (Promega) and the signal was read on a T e can S p ark 10M ( Tecan) for 1000 ms without temperature control.

For data set [5], the target named is T1, PALB2 C-terminal WD40 domain (UniProt Q86YC2 835-1186).
T1 construct: PALB2 (partner and localizer of BRCA2), C-terminal WD40 beta-propeller domain; as I recall that construct spans about residues 835-1186; methods are in the Supporting Information; also called PALB2 C-terminal domain
T1 sequence: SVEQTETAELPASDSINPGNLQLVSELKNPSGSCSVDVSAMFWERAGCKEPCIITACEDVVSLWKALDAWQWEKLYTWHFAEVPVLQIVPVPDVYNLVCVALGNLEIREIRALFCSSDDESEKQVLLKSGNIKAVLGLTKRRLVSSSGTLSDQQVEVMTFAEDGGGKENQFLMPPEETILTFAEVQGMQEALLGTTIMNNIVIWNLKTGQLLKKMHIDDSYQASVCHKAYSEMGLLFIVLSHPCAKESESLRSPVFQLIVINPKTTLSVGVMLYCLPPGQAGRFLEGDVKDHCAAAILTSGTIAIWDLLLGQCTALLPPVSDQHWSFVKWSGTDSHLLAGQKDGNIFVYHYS
The experiment in a line: fluorescence polarisation; not told for these peptides whether direct (labelled peptide) or displacement (dark peptide at 10 μM added to the PALB2C dilution series with 10 nM fluorescent peptide; competitive binding model); 25 °C. The conditions noted are these: both partners purified.

For the molecule `Nc1cccc2c1C(=O)N(C1CCC(=O)NC1=O)C2=O` (stereo not shown) [Pom, pomalidomide], in the data set on PALB2-IKZF3d (10 μM IMiD for 24 h, then medium removed and cells washed, knock-in cells), the “recovery of PALB2 levels after wash out” value is recorded as “PALB2 levels recover after 24 h”. In addition, the “degradation of transiently expressed PALB2-IKZF3d fusion” value in the data set with PALB2-IKZF3d (HEK293, transient transfection, 10 μM pomalidomide, 24 h) was “occurred only with the C-terminal fusion; also recorded: shows degradation”. The “degradation of PALB2 in IKZF3d knock-in cells” value is on record as “significant degradation of PALB2” with PALB2-IKZF3d and “degrade most of the endogenous PA LB2” in the data set on PALB2-IKZF3d (listed as pomalidomide). The “GFP-positive cells (DR-GFP)” value is given as “remained largely unchanged” in data set [1] (HEK293 wild-type cells, Pom vs DMSO control) and “notable decrease in GFP-positive cells” in data set [1] (PALB2 IKZF3d/IKZF3d cells, 10 μM Pom 24 h before I-SceI transfection, flow cytometry after 4 days). In the data set with Rad51 foci (PALB2 IKZF3d/IKZF3d cells), the “number of Rad51 foci formed in response to DSBs by camptothecin” value is listed as “significantly decrease”. For the same molecule, the “compromised Rad51 foci formation” value in the data set with Rad51 foci (PALB2 wild-type cells) is reported as “not observed”. The “viability of WT and KI cell lines with Pom alone” value in data set [2] is listed as “did not show strong differences”.

Consider “BRCA2 (residues 21–39): small fragment of BRCA2 (residues 21-39) from previous structural work (fluorescein-GGKADLGPISLNWFEELSSEA)”, for which the Kd in data set [3] was ~600 nM.

Take PALB2 WD40 (from UniProt Q86YC2): the Kd in data set [4] is 600 nM.

Take “W31R mutation of the BRCA(21–39) peptide: point mutated BRCA2 peptide (21-39, W31R) fused with LgBit; negative control (KADLGPISLNRFEELSSEA; also: fused with LgBiT)”: in the data set with SmBiT-PALB2, the “NanoBit interaction signal with PALB2” value is recorded as “complete loss of the interaction signal”.

B1: BRCA(23–33) (peptide, UniProt P51587 23-33, looked up)
peptide: DLGPISLNWFE
notes: BRCA2 residues 23-33; Rink amide beads: probably a C-terminal amide (my surmise); also called absolute minimal peptide; source: synthetic peptide (SPPS, preparative HPLC)
Consider B1, for which the Kd in data set [5] came out at 8000 nM.

(Values after paper PMC12090178, “Exploring the Potential of Homologous Recombination Protein PALB2 in Synthetic Lethal Combinations” (ACS Chemical Biology, 2025).)
